Patent publication US10258073B2, “Functional nutritional blend for thermo-metabolic performance” (priority 2016, dated 2019)

Tested on: Mouse 3T3-L1 pre adipocytes
Assay: Cell viability by Sulforhodamine B (SRB) assay
Assay type: cell-based
Conditions: 72 h
Protocol: Cell culture: Mouse immortalised 3T3-L1 pre adipocytes were cultured in 5% CO2 at 37° C. in growth media consisting of Dulbecco's Modified Eagles Medium (DMEM) containing 10% heat-inactivated fetal calf serum with 40 μg/mL of gentamycin 5×10^3 cells were seeded per well in a 96 well plate and allowed to grow as a confluent monolayer.
Mouse 3T3-L1 pre adipocytes were cultured in DMEM containing 10% heat-inactivated foetal calf serum. 5000 cells were seeded in 96 well culture plates and allowed to form adhere and form a monolayer. Test compounds were added at different concentrations and incubated for 72 hours at 37° C. and 5% CO2. Cells were fixed using 10% trichloroacetic acid (TCA) solution at 4° C. for one hour. SRB solution (0.4%) was added to the wells and incubated for 30 minutes at room temperature. Excess dye was washed 5 times with 1% acetic acid. 100 μl of 10 mM trizma base was added to the wells to solubilize the SRB. Absorbance was read using a microplate reader at a wave length of 492 nm. The absorbance of cells with growth media was considered as 100% viable and percentage viability was calculated based on this reading.

O=C(/C=C/C=C/c1ccc2c(c1)OCO2)N1CCCCC1 [Piperine]
Non-toxic concentration: 25 µg/mL
